From the supplement of paper PMC7695840
Where “and” joins values, the source holds several entries; their conditions need not be identical. Equal values may be shown once. Where a name gives a salt, the structure may show the parent alone.

Assays:
[1] = test system: Staphylococcus aureus MW2 delta-mecA (mecA-); assay: IC50 (growth, competition assay); settings: cefoxitin: subinhibitory
Summary of the method: (§1)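 Two fluorescent S. aureus MW2 strains, one carrying and one lacking the resistance gene, were pre-induced, mixed 1:1 and grown unshaken in LB in 1536-well plates for 20 h at 37 °C and 90% humidity with a subinhibitory drug dose set each day. Compounds were tested on five- or nine-point 2-fold gradients in two dye-swapped replicates. DsRed (540/590) and GFP (485/520) signals were scaled per plate between the medians of single-strain controls, and No Treatment was then set to 0.5. For each strain, IC50 was taken as the dose that halved the No Treatment signal, or else the maximal signal.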

[2] = test system: Staphylococcus aureus MW2 (mecA+); assay: IC50 (growth, competition assay); settings: cefoxitin: subinhibitory
Summary of the method: as §1

SMILES	IC50 ([1]; fluorescent label: DsRed)	IC50 ([1]; fluorescent label: GFP)	IC50 ([2]; fluorescent label: DsRed)	IC50 ([2]; fluorescent label: GFP)
CC(=O)/C=C1/C(=O)N(C)c2ccccc21 [Supercinnamaldehyde]	< 9.85 µM	< 9.85 µM	46.8 µM	60.4 µM
CC(C)(O)CC(=O)NCCn1ccc2ncnc(Nc3ccc(Oc4cccc(C(F)(F)F)c4)c(Cl)c3)c21 [TAK-285]	< 9.85 µM	< 9.85 µM	26.6 µM	28.3 µM
Cc1cc(OCCCS(C)(=O)=O)cc(C)c1-c1cccc(COc2ccc3c(c2)OC[C@H]3CC(=O)O)c1 [TAK-875]	< 9.85 µM	< 9.85 µM and 12.2 µM	< 9.85 µM and 22.5 µM	14.9 µM and 29.2 µM
O=C(OC[C@H]1O[C@@H](OC(=O)c2cc(O)c(O)c(OC(=O)c3cc(O)c(O)c(O)c3)c2)[C@H](OC(=O)c2cc(O)c(O)c(OC(=O)c3cc(O)c(O)c(O)c3)c2)[C@@H](OC(=O)c2cc(O)c(O)c(OC(=O)c3cc(O)c(O)c(O)c3)c2)[C@@H]1OC(=O)c1cc(O)c(O)c(OC(=O)c2cc(O)c(O)c(O)c2)c1)c1cc(O)c(O)c(OC(=O)c2cc(O)c(O)c(O)c2)c1 [TANNIC ACID]	44 µM	55.3 µM	57 µM	57.2 µM
Brc1c(Br)c(Br)c2[nH]cnc2c1Br [TBBz]	11.7 µM	11.3 µM	12.4 µM	30.5 µM
Cn1sc(=O)n(Cc2ccccc2)c1=O [TDZD-8]	< 9.85 µM	< 9.85 µM	< 9.85 µM	< 9.85 µM
CN1CCN(c2c(F)cc3c(=O)c(C(=O)O)cn4c3c2SCC4)CC1 [TEBRAXIN]	< 9.85 µM	< 9.85 µM	< 9.85 µM	< 9.85 µM
NC(=O)c1cnccn1 [TEBRAZID]	18.2 µM	20.3 µM	26.7 µM	35.6 µM
Cc1onc(-c2ccccc2Cl)c1C(=O)N[C@@H]1C(=O)N2[C@@H]1SC(C)(C)[C@@H]2C(=O)O [TEGOPEN]	< 9.85 µM	< 9.85 µM	< 9.85 µM	< 9.85 µM
CCC(Cc1c(I)cc(I)c(N)c1I)C(=O)O (stereo not drawn) [TELEPAQUE]	< 9.85 µM	< 9.85 µM	10.4 µM	27.5 µM
COc1c(N2CCNC(C)C2)c(F)cc2c(=O)c(C(=O)O)cn(C3CC3)c12 (stereo not drawn) [TEQUIN]	< 9.85 µM	< 9.85 µM	< 9.85 µM	< 9.85 µM
CN(C)[C@@H]1C(O)=C(C(N)=O)C(=O)[C@@]2(O)C(O)=C3C(=O)c4c(O)cccc4[C@@](C)(O)[C@H]3[C@H](O)[C@@H]12 [TERRAMYCIN]	< 9.85 µM	< 9.85 µM	< 9.85 µM	< 9.85 µM
O=C(O)Cc1cc(I)c(Oc2cc(I)c(O)c(I)c2)c(I)c1 [TETRAC]	< 9.85 µM	< 9.85 µM	< 9.85 µM	< 9.85 µM
COc1ccc2c(c1)OC[C@@H](Cc1ccc(OC)c(OC)c1)[C@H]2O [TETRAHYDROSAPPANONE A TRIMETHYL ETHER]	> 150 µM	> 150 µM	> 150 µM	> 150 µM
O=C(O[C@@H]1Cc2c(O)cc(O)cc2O[C@@H]1c1cc(O)c(=O)c2c(O)c(O)cc([C@H]3Oc4cc(O)cc(O)c4C[C@H]3OC(=O)c3cc(O)c(O)c(O)c3)c2c1)c1cc(O)c(O)c(O)c1 [THEAFLAVIN DIGALLATE]	83.8 µM	57.3 µM	> 150 µM	> 150 µM
O=C(O[C@@H]1Cc2c(O)cc(O)cc2O[C@@H]1c1cc(O)c(=O)c2c(O)c(O)cc([C@H]3Oc4cc(O)cc(O)c4C[C@H]3O)c2c1)c1cc(O)c(O)c(O)c1 [THEAFLAVIN MONOGALLATES]	14.8 µM	20.5 µM	111 µM	93.4 µM
O=C(Nc1ccc(C(=O)O)c(O)c1)c1ccccc1 [THERAPAS]	17.6 µM	11.8 µM	29.8 µM	29.3 µM
CCCCCCCCCCCCCCCC[N+](C)(C)CCN(Cc1ccc(OC)cc1)c1ncccn1 [THONZIDE]	< 9.85 µM	< 9.85 µM	< 9.85 µM	14.9 µM
COC(=O)[C@@]1(C)CCC[C@]2(C)c3ccc(O)c(C(C)C)c3CCC12 (stereo partly drawn) [TOTAROL-19-CARBOXYLIC ACID, METHYL ESTER]	66 µM	15.6 µM	27.6 µM	62.8 µM
O=C(O)Cc1cc(I)c(Oc2ccc(O)c(I)c2)c(I)c1 [TRIAC]	11.1 µM	< 9.85 µM	12.5 µM	23 µM
CSc1nc2cc(Cl)c(Oc3cccc(Cl)c3Cl)cc2[nH]1 [TRICLABENDAZOLE]	< 9.85 µM	< 9.85 µM	14.4 µM	13.9 µM

SMILES	IC50 ([1]; fluorescent label: DsRed)	IC50 ([1]; fluorescent label: GFP)	IC50 ([2]; fluorescent label: DsRed)	IC50 ([2]; fluorescent label: GFP)
OCCN1CCN(CCCN2c3ccccc3Sc3ccc(Cl)cc32)CC1 [TRILAFON]	18.4 µM	15.8 µM	57 µM	52.6 µM
COc1cc(Cc2cnc(N)nc2N)cc(OC)c1OC [TRIMPEX]	< 9.85 µM	< 9.85 µM	< 9.85 µM	< 9.85 µM
CC[C@H]1OC(=O)C[C@@H](O)[C@H](C)[C@@H](O[C@@H]2O[C@H](C)[C@@H](O[C@H]3C[C@@](C)(O)[C@@H](O)[C@H](C)O3)[C@H](N(C)C)[C@H]2O)[C@@H](CC=O)C[C@@H](C)C(=O)/C=C/C(C)=C/[C@@H]1CO[C@@H]1O[C@H](C)[C@@H](O)[C@@H](OC)[C@H]1OC [TYLAN]	< 9.85 µM	< 9.85 µM	< 9.85 µM	< 9.85 µM
CC/C(=C(\c1ccccc1)c1ccc(OCCN(C)C)cc1)c1ccccc1 [Tamoxifen citrate]	< 9.85 µM	< 9.85 µM	14.9 µM	14.9 µM
CC/C(=C(\c1ccccc1)c1ccc(OCCN(C)C)cc1)c1ccccc1 [Tamoxifen]	12.2 µM	< 9.85 µM	14.8 µM	14.9 µM
Cc1coc2c1C(=O)C(=O)c1c-2ccc2c1CCCC2(C)C [Tanshinone IIA (Tanshinone B)]	3.7 µM and 13.9 µM	–	7.87 µM and 35.3 µM	41.1 µM and 32.8 µM
Cc1coc2c1C(=O)C(=O)c1c-2ccc2c(C)cccc12 [Tanshinone I]	76.7 µM	64 µM	130 µM	> 150 µM
C[C@@H](O)[C@H]1C(=O)N2C(C(=O)OCOC(=O)C(C)(C)C)=C(SC3CN(C4=NCCS4)C3)[C@H](C)[C@H]12 [Tebipenem pivoxil (L-084)]	< 0.498 µM	< 0.498 µM	1.76 µM	1.77 µM
CCN(CC)C(=S)SSC(=S)N(CC)CC [Tetraethylthiuram disulfide]	< 9.85 µM	< 9.85 µM	33.4 µM	36.1 µM
CSc1ccc2c(c1)N(CCC1CCCCN1C)c1ccccc1S2 (stereo not drawn) [Thioridazine hydrochloride]	< 9.85 µM	14.8 µM	57.7 µM	50.3 µM
CC[C@H]1OC(=O)C[C@@H](O)[C@H](C)[C@@H](O[C@@H]2O[C@H](C)[C@@H](O)[C@H](N(C)C)[C@H]2O)[C@@H](CCN2C[C@H](C)C[C@H](C)C2)C[C@@H](C)C(=O)/C=C/C(C)=C/[C@@H]1CO[C@@H]1O[C@H](C)[C@@H](O)[C@@H](OC)[C@H]1OC [Tilmicosin]	< 9.85 µM	< 9.85 µM	< 9.85 µM	< 9.85 µM
Clc1ccc(C(Cn2ccnc2)OCc2ccsc2Cl)c(Cl)c1 (stereo not drawn) [Tioconazole]	3.9 µM	14.2 µM	29.7 µM	17.8 µM
Cn1cncc1[C@@](N)(c1ccc(Cl)cc1)c1ccc2c(c1)c(-c1cccc(Cl)c1)cc(=O)n2C [Tipifarnib (Zarnestra)]	< 9.85 µM	11.3 µM	29.6 µM	15.1 µM
NC[C@H]1O[C@H](O[C@H]2[C@H](O)[C@@H](O[C@H]3O[C@H](CO)[C@@H](O)[C@H](N)[C@H]3O)[C@H](N)C[C@@H]2N)[C@H](N)C[C@@H]1O [Tobramycin]	32 µM	33.8 µM	16 µM	27.6 µM
Cc1ccc(C(=O)c2cc(O)c(O)c([N+](=O)[O-])c2)cc1 [Tolcapone]	< 9.85 µM	< 9.85 µM	< 9.85 µM	14.4 µM
Cc1cc(-n2c(=O)[nH]c(=O)n(C)c2=O)ccc1Oc1ccc(SC(F)(F)F)cc1 [Toltrazuril]	24.3 µM	27.3 µM	34.6 µM	71.9 µM
CN1CCN(CCCN2c3ccccc3Sc3ccc(C(F)(F)F)cc32)CC1 [Trifluoperazine 2HCl]	16.5 µM	14.5 µM	56.9 µM	57.1 µM
CN1CCN(CCCN2c3ccccc3Sc3ccc(C(F)(F)F)cc32)CC1 [Trifluoperazine dihydrochloride]	15.7 µM	16.5 µM	51.1 µM	52.4 µM
COc1cc(Cc2cnc(N)nc2N)cc(OC)c1OC [Trimethoprim]	< 9.85 µM	< 9.85 µM	12.4 µM and < 9.85 µM	14.6 µM and 14.2 µM
N[C@@H]1[C@H]2CN(c3nc4c(cc3F)c(=O)c(C(=O)O)cn4-c3ccc(F)cc3F)C[C@@H]12 [Trovafloxacin mesylate]	< 9.85 µM	< 9.85 µM	< 9.85 µM	< 9.85 µM
